Measurements as given in patent US7300933B2, “Diazabicyclic biaryl derivatives” (Neurosearch A/S, priority 2002, dated 2007).
Counter-ions that a name gives are not always drawn.

Tests used:
serotonin transporter = target: T1, serotonin transporter (Rattus norvegicus, UniProt P31652); test: In vitro inhibition of 3H-5-hydroxytryptamine uptake in cortical synaptosomes; type: biochemical; conditions: 3H-5-HT 1 nM, 30 minutes at 37° C.
T1 construct: Cerebral cortices from male Wistar rats (150-200 g) are homogenized; from tissue; host or cells: rat cerebral cortex synaptosomes (P2 pellet)
Method: In vitro Inhibition of ^3H-5-Hydroxytryptamine Uptake in Cortical Synaptosomes
Serotonin transporters/uptake sites on nerve terminals presumably function to terminate neuronal signaling by removing serotonin from the synaptic cleft. The activity of the serotonin transporter integral protein can be measured in vitro by synaptosomal uptake of ^3H-5-hydroxytryptamine (5-HT, serotonin).
Preparations are performed at 0-4° C. Cerebral cortices from male Wistar rats (150-200 g) are homogenized for 5-10 seconds in 100 volumes of ice-cold 0.32 M sucrose containing 1 mM pargyline, using a motor driven teflon pestle in a glass homogenizing vessel. Monoamine oxidase activity is inhibited in the presence of pargyline.
The homogenate is subjected to centrifugation at 1000×g for 10 minutes. The resulting supernatant is then centrifuged at 27,000×g for 50 minutes and the supernatant is discarded. […]
Aliquots of 4.0 ml tissue suspension are added to 100 μl of test solution and 100 μl of ^3H-5-HT (1 nM, final concentration), mixed and incubated for 30 minutes at 37° C. Non-specific uptake is determined using Citalopram (1 μM, final concentration, available from Lundbeck, Denmark). […]
The amount of radioactivity on the filters is determined by conventional liquid scintillation counting. Specific uptake is calculated as the difference between total uptake and non-specific uptake. […]

[1] = target: T2, α7-subtype of nicotinic receptors (Rattus norvegicus, UniProt Q05941); test: In vitro inhibition of 3H-α-bungarotoxine binding in rat brain; conditions: rat cerebral cortex homogenate; 3H-α-bungarotoxine 2 nM; 2 hours at 37° C.
T2 construct: Cerebral cortices from male Wistar rats (150-250 g) are homogenised; from tissue; host or cells: rat cerebral cortex membrane homogenate
T2 sequence (Q05941 23-502): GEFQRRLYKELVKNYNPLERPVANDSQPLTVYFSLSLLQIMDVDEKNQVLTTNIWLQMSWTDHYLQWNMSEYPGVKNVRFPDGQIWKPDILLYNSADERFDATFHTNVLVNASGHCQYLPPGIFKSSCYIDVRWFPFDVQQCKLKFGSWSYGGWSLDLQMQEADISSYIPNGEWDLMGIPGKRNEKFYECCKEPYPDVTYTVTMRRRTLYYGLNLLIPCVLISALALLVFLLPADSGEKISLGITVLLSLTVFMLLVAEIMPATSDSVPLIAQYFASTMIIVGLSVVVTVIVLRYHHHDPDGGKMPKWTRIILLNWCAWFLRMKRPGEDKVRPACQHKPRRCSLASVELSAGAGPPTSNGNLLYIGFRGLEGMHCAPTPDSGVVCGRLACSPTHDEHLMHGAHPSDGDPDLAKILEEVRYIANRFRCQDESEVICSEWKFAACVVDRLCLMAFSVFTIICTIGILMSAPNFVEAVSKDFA

T1 sequence (P31652 whole entry): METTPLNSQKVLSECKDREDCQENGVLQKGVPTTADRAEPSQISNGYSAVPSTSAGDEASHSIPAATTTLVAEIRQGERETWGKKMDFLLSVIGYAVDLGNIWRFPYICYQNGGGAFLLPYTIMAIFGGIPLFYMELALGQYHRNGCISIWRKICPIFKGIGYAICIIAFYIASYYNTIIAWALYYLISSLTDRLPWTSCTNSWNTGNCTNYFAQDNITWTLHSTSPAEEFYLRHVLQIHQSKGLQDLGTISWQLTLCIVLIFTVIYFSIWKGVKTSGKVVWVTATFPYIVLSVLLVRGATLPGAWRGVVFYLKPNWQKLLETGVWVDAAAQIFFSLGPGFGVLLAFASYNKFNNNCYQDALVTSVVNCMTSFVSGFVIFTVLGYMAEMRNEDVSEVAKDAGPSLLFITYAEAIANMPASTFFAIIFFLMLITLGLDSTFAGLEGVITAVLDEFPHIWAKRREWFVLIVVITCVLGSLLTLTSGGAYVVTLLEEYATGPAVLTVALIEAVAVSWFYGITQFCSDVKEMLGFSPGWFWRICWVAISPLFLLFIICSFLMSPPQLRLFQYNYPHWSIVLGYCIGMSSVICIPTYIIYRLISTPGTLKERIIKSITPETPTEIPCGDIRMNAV

SMILES	IC50 (serotonin transporter) [nM]	IC50 [1] [nM]
c1cc(-c2ccc(N3C[C@@H]4C[C@H]3CN4)nn2)cs1 [Compound 1A, 2-[6-(3-Thienyl)-3-pyridazinyl]-(1S,4S)-2,5-diazabicyclo-[2.2.1]-heptane fumaric acid salt]	510	
CN1C[C@@H]2C[C@H]1CN2c1ccc(-c2ccsc2)nn1 [Compound 1B, 5-Methyl-2-[6-(3-thienyl)-3-pyridazinyl]-(1S,4S)-2,5-diazabicyclo-[2.2.1]-heptane]		200
c1cc(-c2cnc(N3C[C@@H]4C[C@H]3CN4)cn2)cs1 [Compound 1H, 2-[5-(3-Thienyl)-2-pyrazinyl]-(1S,4S)-2,5-diazabicyclo-[2.2.1]-heptane fumaric acid salt]	21	260
